Measurements taken from US20240043404A1 (AbbVie Inc., priority 2009, published 2024).
pEC50: −log10 of the molar value. Read-outs that look alike come from different tables or passages of the source.

Tested on: RS4;11 cells
Assay: RS4;11 cell viability assay (CellTiter Glo);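 also: acute lymphoblastic leukemia line RS4,11, EC50 derived from percentage of viable cells after treatment relative to untreated controls, cell killing taken as a measure of Bcl-2 inhibition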
Type: cell-based, human
Details: Homo sapiens, read-out: RS4
[1] = RS4-11, 48 h, 50,000 cells per well, 10% human serum, 48 hours, 11 EC50 Values

Experimental: The acute lymphoblastic leukemia (ALL) cell line RS4;11 was used as the primary human cell line to assess the cellular activity of Bcl-2 selective agents in vitro and their efficacy in vivo.
Cell cytotoxicity EC50 values were assessed using CellTiter Glo (Promega) according to the manufacturer's recommendations. The EC50 values were determined as a percentage of viable cells following treatment compared to the untreated control cells.

Row | Compound | pEC50 [1] | pEC50 (RS4-11, Table 5, direct comparison Z=N with corresponding analogs Z=C, 11 EC50)
1 | CC1(C)CCC(CN2CCN(c3ccc(C(=O)NS(=O)(=O)c4ccc(NCC5CNCCO5)c([N+](=O)[O-])c4)c(Oc4cnc5[nH]ccc5c4)c3)CC2)=C(c2ccc(Cl)cc2)C1 (stereo not shown) [Example 113, 4-(4-{[2-(4-chlorophenyl)-4,4-dimethylcyclohex-1-en-1-yl]methyl}piperazin-1-yl)-N-({4-[(morpholin-2-ylmethyl)amino]-3-nitrophenyl}sulfonyl)-2-(1H-pyrrolo[2,3-b]pyridin-5-yloxy)benzamide] | 8.87 | –
2 | CN1CCC(Nc2ccc(S(=O)(=O)NC(=O)c3ccc(N4CCN(CC5=C(c6ccc(Cl)cc6)CC(C)(C)CC5)CC4)cc3Oc3cccc4[nH]c5ccccc5c34)cc2[N+](=O)[O-])CC1 [Example 7, 2-(9H-carbazol-4-yloxy)-4-(4-{[2-(4-chlorophenyl)-4,4-dimethylcyclohex-1-en-1-yl]methyl}piperazin-1-yl)-N-({4-[(1-methylpiperidin-4-yl)amino]-3-nitrophenyl}sulfonyl)benzamide] | 6.72 | –
3 | CC1(C)CCC(CN2CCN(c3ccc(C(=O)NS(=O)(=O)c4ccc(NC[C@@H]5CN(C6CC6)CCO5)c([N+](=O)[O-])c4)c(Oc4cnc5[nH]ccc5c4)c3)CC2)=C(c2ccc(Cl)cc2)C1 [Example 326, 4-(4-{[2-(4-chlorophenyl)-4,4-dimethylcyclohex-1-en-1-yl]methyl}piperazin-1-yl)-N-{[4-({[(2R)-4-cyclopropylmorpholin-2-yl]methyl}amino)-3-nitrophenyl]sulfonyl}-2-(1H-pyrrolo[2,3-b]pyridin-5-yloxy)benzamide] | 7.64 | –
4 | CC1(C)CCC(CN2CCN(c3ccc(C(=O)NS(=O)(=O)c4ccc(NC5CCN(S(C)(=O)=O)CC5)c([N+](=O)[O-])c4)c(Oc4cnc5[nH]ccc5c4)c3)CC2)=C(c2ccc(Cl)cc2)C1 [Example 80, 4-(4-{[2-(4-chlorophenyl)-4,4-dimethylcyclohex-1-en-1-yl]methyl}piperazin-1-yl)-N-[(4-{[1-(methylsulfonyl)piperidin-4-yl]amino}-3-nitrophenyl)sulfonyl]-2-(1H-pyrrolo[2,3-b]pyridin-5-yloxy)benzamide] | 7.16 | –
5 | COc1cccc(CNc2ccc(S(=O)(=O)NC(=O)c3ccc(N4CCN(CC5=C(c6ccc(Cl)cc6)CC(C)(C)CC5)CC4)cc3Oc3cnc4[nH]ccc4c3)cc2[N+](=O)[O-])c1 [Example 176, 4-(4-{[2-(4-chlorophenyl)-4,4-dimethylcyclohex-1-en-1-yl]methyl}piperazin-1-yl)-N-({4-[(3-methoxybenzyl)amino]-3-nitrophenyl}sulfonyl)-2-(1H-pyrrolo[2,3-b]pyridin-5-yloxy)benzamide] | 6.87 | –
6 | CC1(C)CCC(CN2CCN(c3ccc(C(=O)NS(=O)(=O)c4ccc(NCC5CCN(S(C)(=O)=O)C5)c([N+](=O)[O-])c4)c(Oc4cnc5[nH]ccc5c4)c3)CC2)=C(c2ccc(Cl)cc2)C1 (stereo not shown) [Example 152, 4-(4-{[2-(4-chlorophenyl)-4,4-dimethylcyclohex-1-en-1-yl]methyl}piperazin-1-yl)-N-{[4-({[1-(methylsulfonyl)pyrrolidin-3-yl]methyl}amino)-3-nitrophenyl]sulfonyl}-2-(1H-pyrrolo[2,3-b]pyridin-5-yloxy)benzamide] | 7.69 | –
7 | CC1(C)CCC(CN2CCN(c3ccc(C(=O)NS(=O)(=O)c4ccc(NCc5ccc(OCCN6CCOCC6)cc5)c([N+](=O)[O-])c4)c(Oc4cnc5[nH]ccc5c4)c3)CC2)=C(c2ccc(Cl)cc2)C1 [Example 198, 4-(4-{[2-(4-chlorophenyl)-4,4-dimethylcyclohex-1-en-1-yl]methyl}piperazin-1-yl)-N-[(4-{[4-(2-morpholin-4-ylethoxy)benzyl]amino}-3-nitrophenyl)sulfonyl]-2-(1H-pyrrolo[2,3-b]pyridin-5-yloxy)benzamide] | 7.44 | –
8 | CC1(C)CCC(CN2CCN(c3ccc(C(=O)NS(=O)(=O)c4ccc(NCC5CCC6(CC5)COC6)c([N+](=O)[O-])c4)c(Oc4cnc5[nH]ccc5c4)c3)CC2)=C(c2ccc(Cl)cc2)C1 [Example 365, 4-(4-{[2-(4-chlorophenyl)-4,4-dimethylcyclohex-1-en-1-yl]methyl}piperazin-1-yl)-N-({3-nitro-4-[(2-oxaspiro[3.5]non-7-ylmethyl)amino]phenyl}sulfonyl)-2-(1H-pyrrolo[2,3-b]pyridin-5-yloxy)benzamide] | 8.52 | –
9 | CC1(C)CCC(CN2CCN(c3ccc(C(=O)NS(=O)(=O)c4ccc(OCC5(F)CCN(C6COC6)CC5)c(C#N)c4)c(Oc4cnc5[nH]ccc5c4)c3)CC2)=C(c2ccc(Cl)cc2)C1 [Example 357, 4-(4-{[2-(4-chlorophenyl)-4,4-dimethylcyclohex-1-en-1-yl]methyl}piperazin-1-yl)-N-[(3-cyano-4-{[4-fluoro-1-(oxetan-3-yl)piperidin-4-yl]methoxy}phenyl)sulfonyl]-2-(1H-pyrrolo[2,3-b]pyridin-5-yloxy)benzamide] | 7.88 | –
10 | CC1(C)CCC(CN2CCN(c3ccc(C(=O)NS(=O)(=O)c4ccc(N[C@@H]5CCN(C6CCOCC6)C5)c([N+](=O)[O-])c4)c(Oc4cnc5[nH]ccc5c4)c3)CC2)=C(c2ccc(Cl)cc2)C1 [Example 130, 4-(4-{[2-(4-chlorophenyl)-4,4-dimethylcyclohex-1-en-1-yl]methyl}piperazin-1-yl)-N-[(3-nitro-4-{[(3R)-1-tetrahydro-2H-pyran-4-ylpyrrolidin-3-yl]amino}phenyl)sulfonyl]-2-(1H-pyrrolo[2,3-b]pyridin-5-yloxy)benzamide] | 7.98 | –
11 | CN1CCC(Nc2ccc(S(=O)(=O)NC(=O)c3ccc(N4CCN(CC5=C(c6ccc(Cl)cc6)CC(C)(C)CC5)CC4)cc3Oc3ccc4[nH]ccc4c3)cc2[N+](=O)[O-])CC1 [Example 90, 4-(4-{[2-(4-chlorophenyl)-4,4-dimethylcyclohex-1-en-1-yl]methyl}piperazin-1-yl)-2-(1H-indol-5-yloxy)-N-({4-[(1-methylpiperidin-4-yl)amino]-3-nitrophenyl}sulfonyl)benzamide] | 7.20 | 7.20

Second part, led by results:

Row | pEC50 [1] | Compound | pEC50 (RS4-11, Table 5, direct comparison Z=N with corresponding analogs Z=C, 11 EC50)
12 | 8.46 | CC1(C)CCC(CN2CCN(c3ccc(C(=O)NS(=O)(=O)c4ccc(NC[C@H]5CC[C@H](C#N)CC5)c([N+](=O)[O-])c4)c(Oc4cnc5[nH]ccc5c4)c3)CC2)=C(c2ccc(Cl)cc2)C1 [Example 276, 4-(4-{[2-(4-chlorophenyl)-4,4-dimethylcyclohex-1-en-1-yl]methyl}piperazin-1-yl)-N-[(4-{[(trans-4-cyanocyclohexyl)methyl]amino}-3-nitrophenyl)sulfonyl]-2-(1H-pyrrolo[2,3-b]pyridin-5-yloxy)benzamide] | –
13 | 6.35 | CC1(C)CCC(CN2CCN(c3ccc(C(=O)NS(=O)(=O)c4cnc(OC[C@@H]5C[C@H]6C[C@@H]5C[C@@]6(C)O)c(Cl)c4)c(Oc4cnc5[nH]ccc5c4)c3)CC2)=C(c2ccc(Cl)cc2)C1 [Example 339, N-[(5-chloro-6-{[(1R,2R,4R,5R)-5-hydroxy-5-methylbicyclo[2.2.1]hept-2-yl]methoxy}pyridin-3-yl)sulfonyl]-4-(4-{[2-(4-chlorophenyl)-4,4-dimethylcyclohex-1-en-1-yl]methyl}piperazin-1-yl)-2-(1H-pyrrolo[2,3-b]pyridin-5-yloxy)benzamide] | –
14 | 6.90 | CC1(C)CCC(CN2CCN(c3ccc(C(=O)NS(=O)(=O)c4cnc(OC[C@H]5C[C@H]6C[C@@H]5C[C@@]6(C)O)c(Cl)c4)c(Oc4cnc5[nH]ccc5c4)c3)CC2)=C(c2ccc(Cl)cc2)C1 [Example 343, N-[(5-chloro-6-{[(1R,2S,4R,5R)-5-hydroxy-5-methylbicyclo[2.2.1]hept-2-yl]methoxy}pyridin-3-yl)sulfonyl]-4-(4-{[2-(4-chlorophenyl)-4,4-dimethylcyclohex-1-en-1-yl]methyl}piperazin-1-yl)-2-(1H-pyrrolo[2,3-b]pyridin-5-yloxy)benzamide] | –
15 | 6.74 | CC1(C)CCC(CN2CCN(c3ccc(C(=O)NS(=O)(=O)c4ccc(N5CCC(N6CCOCC6)CC5)c([N+](=O)[O-])c4)c(Oc4cnc5[nH]ccc5c4)c3)CC2)=C(c2ccc(Cl)cc2)C1 [Example 223, 4-(4-{[2-(4-chlorophenyl)-4,4-dimethylcyclohex-1-en-1-yl]methyl}piperazin-1-yl)-N-({4-[4-(morpholin-4-yl)piperidin-1-yl]-3-nitrophenyl}sulfonyl)-2-(1H-pyrrolo[2,3-b]pyridin-5-yloxy)benzamide] | –
16 | 8.29 | CC1(C)CCC(CN2CCN(c3ccc(C(=O)NS(=O)(=O)c4ccc(OCC5(F)CCN(C6CC6)CC5)c([N+](=O)[O-])c4)c(Oc4cnc5[nH]ccc5c4)c3)CC2)=C(c2ccc(Cl)cc2)C1 [Example 173, 4-(4-{[2-(4-chlorophenyl)-4,4-dimethylcyclohex-1-en-1-yl]methyl}piperazin-1-yl)-N-({4-[(1-cyclopropyl-4-fluoropiperidin-4-yl)methoxy]-3-nitrophenyl}sulfonyl)-2-(1H-pyrrolo[2,3-b]pyridin-5-yloxy)benzamide] | –
17 | 5.45 | CC1(C)CCC(CN2CCN(c3ccc(C(=O)NS(=O)(=O)c4ccc(OCC5CCOCC5)c(C(N)=O)c4)c(Oc4cnc5[nH]ccc5c4)c3)CC2)=C(c2ccc(Cl)cc2)C1 [Example 38, N-{[3-(aminocarbonyl)-4-(tetrahydro-2H-pyran-4-ylmethoxy)phenyl]sulfonyl}-4-(4-{[2-(4-chlorophenyl)-4,4-dimethylcyclohex-1-en-1-yl]methyl}piperazin-1-yl)-2-(1H-pyrrolo[2,3-b]pyridin-5-yloxy)benzamide] | –
18 | 7.24 | CC1(C)CCC(CN2CCN(c3ccc(C(=O)NS(=O)(=O)c4cnc(OCC5(F)CCN(CC(F)F)CC5)c(Cl)c4)c(Oc4cnc5[nH]ccc5c4)c3)CC2)=C(c2ccc(Cl)cc2)C1 [Example 285, N-[(5-chloro-6-{[1-(2,2-difluoroethyl)-4-fluoropiperidin-4-yl]methoxy}pyridin-3-yl)sulfonyl]-4-(4-{[2-(4-chlorophenyl)-4,4-dimethylcyclohex-1-en-1-yl]methyl}piperazin-1-yl)-2-(1H-pyrrolo[2,3-b]pyridin-5-yloxy)benzamide] | –
